Test results published in patent US20130316389A1, “Method and System for Determining Characteristics of an Embryo and Uses Thereof” (University of Plymouth, priority 2010, published 2013).

System: zebra fish (Danio rerio) embryos
Experiment: Movement pattern analysis of zebra fish embryos subjected to challenge (Example 5)
Type: in vivo
Conditions: 30 minutes exposure
Protocol: Images of the movement of each subject embryo were recorded for a period of ten minutes. The imaging apparatus comprised a 4 megapixel monochrome camera (AVT Pike 421) operating at 15 Hz with a 1600×1200 pixel region of interest, connected to a zooming optic lens system (Keyence VHZ100R).
This temporal tracking technique first extracts corner features from each image. Thereafter, image features are registered from frame to frame and assigned a velocity variance to each, A feature with a high velocity variance was rejected, as indicating inaccurate tracking. The remaining features were used in subsequent analysis of the movement pattern of the embryo.
Four parameters of motion of the subject embryo were extracted from each frame of the image data and compared with the corresponding parameters in the preceding frames. The four parameters of motion were positive and negative angles of rotation, and Rho-theta angular changes to the centre of mass for the embryo. The centre of mass of the embryo was determined by determining the X and Y coordinates of every point of motion detected. The X and Y coordinates were summed to provide mean values for X and Y.
The resulting data were analysed for spectral content using the Fast Discrete Fourier Transform (FDFT), to generate data relating to the frequency of motion of the subject embryo. […] 18 frequency bins were analysed from the FDFT analysis. […]

CCO [ethanol]
movement pattern (optic flow) compared with the control embryos (1.5% ethanol in deionised water, stage 19 and 21.5 hpf embryos, 27° C): more peaks in positive and negative rotational movement and X and Y displacement of the centre of mass | distinction from control embryos by ANOSIM analysis of movement patterns (1.5% ethanol, stage 33 embryos): readily distinguished from the stage 33 control embryos
